# Results as given in US20120165309A1, “HETERO RING DERIVATIVE” (Astellas Pharma Inc., priority 2009, published 2012).
# pIC50: −log10 of the molar value.
# Legend:
# human PI3Kδ enzyme = biological target: T1, human PI3Kδ enzyme (Homo sapiens, UniProt O00329); experiment: PI3Kδ enzyme inhibitory activity (PI3-Kinase HTRF Assay kit); type: biochemical; conditions: human PI3Kδ 10 ng/well, ATP 30 μM, PIP2 10 μM, room temperature 30 minutes
# T1 construct: purchased Millipore Corporation 14-604
# Experimental: 1. PI3Kδ Enzyme Inhibitory Activity
# For the experiment, a PI3-Kinase HTRF Assay kit (Millipore Corporation, Catalogue No. 33-016) and a human PI3Kδ enzyme (Millipore Corporation, Catalogue No. 14-604) were used. The measurement method was in accordance with the appended instructions. The overview thereof is as follows.
# PI3Kδ (10 ng/well), phosphatidylinositol-4,5-bisphosphate (10 μM), ATP (30 μM), and the test compound were mixed in a 384-well plate (total 20 μL), and incubated at room temperature for 30 minutes. EDTA and biotinylated phosphatidylinositol-3,4,5-triphosphate were added thereto to stop the reaction. Thereafter, a Europium labeled anti-GST antibody, a GST bond GRP1 PH domain, and streptavidin-APC were added thereto, followed by incubation overnight. An HTRF ratio was measured using an HTRF plate reader. The IC50 value of the compound was calculated, taking the inhibition rate without addition of the enzyme as 100% and the inhibition rate without addition of the test compound as 0%, by means of a logistic method.
# (§1) In the Table, Ex represents Example Compound No. as described later, PI3Kδ represents the IC50 value (nM) of a PI3Kδ enzyme inhibitory activity, and PI3Kα represents the IC50 value (nM) of a PI3Kα enzyme inhibitory activity.
# Human PI3Kα = biological target: T2, Human PI3Kα (Homo sapiens, UniProt P42336); experiment: PI3Kα enzyme inhibitory activity (Kinase-Glo Plus luminescence); type: biochemical; conditions: Human PI3Kα 12 ng/well, phosphatidylinositol 0.2 μg/well, 37° C. for 3 hours
# T2 construct: purchased Millipore Corporation 14-602
# Experimental: 2. PI3Kα Enzyme Inhibitory Activity
# Human PI3Kα (12 ng/well, Millipore Corporation, Catalogue No. 14-602), phosphatidylinositol (0.2 μg/well), and the test compound were mixed in a 384-well plate in a reaction buffer (50 mM Hepes, 10 mM NaCl, 10 mM MgCl2, 2 mM EGTA, 2 mM DTT, pH 7.3) (total 10 μl), and incubated at 37° C. for 3 hours. After the reaction, 10 μL of a Kinase-Glo Plus reagent (Promega, Catalogue No. V3772) was added thereto, and a luminescence was measured with a luminometer. The IC50 value of the compound was calculated, taking the inhibition rate without addition of the enzyme as 100% and the inhibition rate without addition of the test compound as 0%, by a logistic method.
# as §1
# T2 sequence (P42336 whole entry): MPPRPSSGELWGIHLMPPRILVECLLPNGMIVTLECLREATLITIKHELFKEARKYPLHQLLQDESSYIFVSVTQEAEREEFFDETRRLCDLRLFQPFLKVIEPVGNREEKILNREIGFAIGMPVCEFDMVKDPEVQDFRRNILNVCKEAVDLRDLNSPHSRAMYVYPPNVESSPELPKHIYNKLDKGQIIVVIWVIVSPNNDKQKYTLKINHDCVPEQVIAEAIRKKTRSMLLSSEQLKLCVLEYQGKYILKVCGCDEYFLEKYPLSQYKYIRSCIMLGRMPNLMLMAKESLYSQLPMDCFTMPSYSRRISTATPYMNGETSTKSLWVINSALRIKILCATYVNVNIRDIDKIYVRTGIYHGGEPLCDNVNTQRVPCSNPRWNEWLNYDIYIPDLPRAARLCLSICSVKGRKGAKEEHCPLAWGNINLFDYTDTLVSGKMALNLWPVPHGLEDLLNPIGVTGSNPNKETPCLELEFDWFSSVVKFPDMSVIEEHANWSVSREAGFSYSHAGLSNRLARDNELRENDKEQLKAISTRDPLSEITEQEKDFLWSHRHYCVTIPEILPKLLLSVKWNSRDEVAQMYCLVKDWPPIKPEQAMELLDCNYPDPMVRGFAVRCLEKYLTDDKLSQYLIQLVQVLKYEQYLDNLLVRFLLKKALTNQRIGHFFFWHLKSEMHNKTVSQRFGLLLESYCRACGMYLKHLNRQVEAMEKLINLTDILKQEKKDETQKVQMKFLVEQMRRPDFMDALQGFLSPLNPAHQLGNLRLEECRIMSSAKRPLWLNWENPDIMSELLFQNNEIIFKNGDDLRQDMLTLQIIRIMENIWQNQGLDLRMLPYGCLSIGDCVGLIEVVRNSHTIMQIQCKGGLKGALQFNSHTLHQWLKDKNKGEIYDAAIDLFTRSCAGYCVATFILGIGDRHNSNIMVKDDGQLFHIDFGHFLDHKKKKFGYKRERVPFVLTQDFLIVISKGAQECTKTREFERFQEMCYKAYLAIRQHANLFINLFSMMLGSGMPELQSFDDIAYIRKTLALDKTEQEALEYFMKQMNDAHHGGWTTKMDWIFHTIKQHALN
# T2 sequence (P27986 whole entry partner): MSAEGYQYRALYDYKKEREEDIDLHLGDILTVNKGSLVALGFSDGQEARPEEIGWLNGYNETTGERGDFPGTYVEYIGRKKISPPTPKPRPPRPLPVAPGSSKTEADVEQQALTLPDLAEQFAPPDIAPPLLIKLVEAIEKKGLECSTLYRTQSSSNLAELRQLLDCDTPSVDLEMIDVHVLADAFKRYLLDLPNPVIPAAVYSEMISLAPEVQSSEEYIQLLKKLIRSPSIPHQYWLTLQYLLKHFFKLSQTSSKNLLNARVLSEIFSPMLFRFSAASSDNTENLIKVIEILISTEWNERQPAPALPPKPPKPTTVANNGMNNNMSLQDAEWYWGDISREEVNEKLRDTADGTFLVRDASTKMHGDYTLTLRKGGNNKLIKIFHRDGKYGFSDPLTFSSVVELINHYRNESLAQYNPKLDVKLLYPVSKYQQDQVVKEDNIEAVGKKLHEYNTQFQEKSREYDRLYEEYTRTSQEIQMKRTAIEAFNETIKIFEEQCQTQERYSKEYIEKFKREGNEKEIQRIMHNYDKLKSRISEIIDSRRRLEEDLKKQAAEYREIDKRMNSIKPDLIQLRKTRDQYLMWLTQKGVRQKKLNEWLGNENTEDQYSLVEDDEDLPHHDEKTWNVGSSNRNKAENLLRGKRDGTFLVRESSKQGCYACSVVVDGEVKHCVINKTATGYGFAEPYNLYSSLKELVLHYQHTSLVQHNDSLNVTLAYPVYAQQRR
# T1 sequence (O00329 whole entry): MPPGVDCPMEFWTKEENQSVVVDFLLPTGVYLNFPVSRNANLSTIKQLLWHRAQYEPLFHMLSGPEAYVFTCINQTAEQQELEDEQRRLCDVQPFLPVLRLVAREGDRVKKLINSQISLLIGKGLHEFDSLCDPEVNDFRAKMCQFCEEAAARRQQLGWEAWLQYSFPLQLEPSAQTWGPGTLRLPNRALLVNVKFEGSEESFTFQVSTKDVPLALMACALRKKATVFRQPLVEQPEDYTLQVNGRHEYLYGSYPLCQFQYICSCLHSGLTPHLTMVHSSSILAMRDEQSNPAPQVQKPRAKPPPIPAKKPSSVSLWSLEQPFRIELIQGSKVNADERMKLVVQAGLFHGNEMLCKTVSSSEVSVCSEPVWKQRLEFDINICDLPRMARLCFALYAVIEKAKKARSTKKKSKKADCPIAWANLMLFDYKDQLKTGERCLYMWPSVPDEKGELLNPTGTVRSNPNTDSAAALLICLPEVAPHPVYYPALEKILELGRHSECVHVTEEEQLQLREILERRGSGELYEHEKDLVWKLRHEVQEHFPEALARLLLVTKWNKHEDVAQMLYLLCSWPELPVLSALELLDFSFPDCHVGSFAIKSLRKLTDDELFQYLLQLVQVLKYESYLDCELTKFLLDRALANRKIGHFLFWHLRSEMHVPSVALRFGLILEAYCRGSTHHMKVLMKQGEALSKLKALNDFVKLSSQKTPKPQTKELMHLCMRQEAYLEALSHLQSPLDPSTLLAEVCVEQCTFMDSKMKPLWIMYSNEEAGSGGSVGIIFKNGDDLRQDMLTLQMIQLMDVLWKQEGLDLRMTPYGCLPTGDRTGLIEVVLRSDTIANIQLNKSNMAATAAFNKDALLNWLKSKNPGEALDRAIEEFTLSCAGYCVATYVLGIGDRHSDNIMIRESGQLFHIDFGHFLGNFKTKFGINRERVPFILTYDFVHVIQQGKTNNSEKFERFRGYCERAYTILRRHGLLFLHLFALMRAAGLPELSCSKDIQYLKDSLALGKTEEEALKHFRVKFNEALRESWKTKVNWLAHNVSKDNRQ
# T1 sequence (P27986 whole entry partner): as the sequence (P27986 whole entry partner) above
Structure (SMILES),pIC50 (human PI3Kδ enzyme),pIC50 (Human PI3Kα)
C#CCN(CC#C)[C@H]1CC[C@H](CNc2nc(N3CCOCC3)cc(-n3c(C(F)F)nc4ccccc43)n2)CC1 [Example 423],7.96,5.38
CCN(CC(C)(C)O)[C@H]1CC[C@H](CNc2nc(N3CCOC[C@H]3C)cc(-n3c(C(F)F)nc4ccccc43)n2)CC1 [Example 402],8.44,6.21
O=S1(=O)CCN([C@H]2CC[C@H](CNc3cc(-n4c(C(F)F)nc5ccccc54)nc(N4CCOCC4)n3)CC2)CC1 [Example 229],8.00,5.17
N[C@H]1CC[C@H](Nc2nc(N3CCOCC3)nc(-n3c(C(F)F)nc4ccccc43)n2)CC1 [Example 27],7.70,6.00
CC(F)CN(C)[C@H]1CC[C@H](CNc2nc(N3CCOCC3)cc(-n3c(C(F)F)nc4ccccc43)n2)CC1 (some centres unmarked) [Example 330],8.07,5.26
Oc1ccccc1CN[C@H]1CC[C@H](Nc2nc(N3CCOCC3)nc(-n3c(C(F)F)nc4ccccc43)n2)CC1 [Example 104],8.68,6.09
"CC(=O)N(C)[C@H]1CC[C@H](Nc2nc(N3CCOCC3)nc(-n3c(C(F)F)nc4ccccc43)n2)CC1 [Example 14, N-[trans-4-({4-[2-(difluoromethyl)-1H-benzimidazol-1-yl]-6-morpholin-4-yl-1,3,5-triazin-2-yl}amino)cyclohexyl]-N-methylacetamide]",8.36,5.85
N#Cc1ccc(NC(=O)N[C@H]2CC[C@H](Nc3nc(N4CCOCC4)cc(-n4c(C(F)F)nc5ccccc54)n3)CC2)cc1 [Example 123],9.07,6.34
CC(=O)N[C@H]1CC[C@H](Nc2nc(N3CCOCC3)nc(-n3c(C(F)F)nc4ccccc43)n2)CC1 [Example 193],7.64,6.26
CCOCCN(C)[C@H]1CC[C@H](CNc2nc(N3CCOCC3)cc(-n3c(C(F)F)nc4ccccc43)n2)CC1 [Example 397],7.64,5.54
O=C(CS(=O)(=O)c1ccccc1)N[C@H]1CC[C@H](Nc2nc(N3CCOCC3)cc(-n3c(C(F)F)nc4ccccc43)n2)CC1 [Example 52],8.47,5.57
O=C(NCc1ccc(F)cc1)N[C@H]1CC[C@H](Nc2nc(N3CCOCC3)nc(-n3c(C(F)F)nc4ccccc43)n2)CC1 [Example 116],8.28,6.74
CN(C)CCC(=O)N[C@H]1CC[C@H](Nc2nc(N3CCOCC3)cc(-n3c(C(F)F)nc4ccccc43)n2)CC1 [Example 208],8.07,5.64
CC(N[C@H]1CC[C@H](Nc2nc(N3CCOCC3)nc(-n3c(C(F)F)nc4ccccc43)n2)CC1)c1ccccc1O (some centres unmarked) [Example 108],8.55,5.66
CCN(C(C)CF)[C@H]1CC[C@H](CNc2nc(N3CCOCC3)cc(-n3c(C(F)F)nc4ccccc43)n2)CC1 (some centres unmarked) [Example 344],7.85,6.00
O=C(CN1CCCCCC1)N[C@H]1CC[C@H](Nc2cc(-n3c(C(F)F)nc4ccccc43)nc(N3CCOCC3)n2)CC1 [Example 190],8.39,< 5.52
CC(C)(O)CN(CC(C)(C)O)[C@H]1CC[C@H](CNc2nc(N3CCOCC3)cc(-n3c(C(F)F)nc4ccccc43)n2)CC1 [Example 396],7.89,5.64
Cc1ccc(S(=O)(=O)NCC(=O)N[C@H]2CC[C@H](Nc3nc(N4CCOCC4)cc(-n4c(C(F)F)nc5ccccc54)n3)CC2)cc1 [Example 53],8.34,5.57
O=C1CCCN1[C@H]1CC[C@H](Nc2cc(-n3c(C(F)F)nc4ccccc43)nc(N3CCOCC3)n2)CC1 [Example 185],8.37,< 5.52
O=C(N[C@H]1CC[C@H](Nc2nc(N3CCOCC3)cc(-n3c(C(F)F)nc4ccccc43)n2)CC1)[C@@H]1CCCN1 [Example 154],8.42,5.74
FC[C@@H]1CCCN1[C@H]1CC[C@@H](CNc2cc(-n3c(C(F)F)nc4ccccc43)nc(N3CCOCC3)n2)CC1 [Example 485],7.51,< 5.00

Structure (SMILES),pIC50 (human PI3Kδ enzyme),pIC50 (Human PI3Kα)
CC(F)C(C)N(C)[C@H]1CC[C@H](CNc2nc(N3CCOCC3)cc(-n3c(C(F)F)nc4ccccc43)n2)CC1 (some centres unmarked) [Example 384],7.80,5.80
O=C(CN1CCCC1)N[C@H]1CC[C@H](Nc2nc(N3CCOCC3)cc(-n3c(C(F)F)nc4ccccc43)n2)CC1 [Example 187],8.04,
O=S1(=O)CCN([C@H]2CC[C@H](CNc3nc(N4CCOCC4)cc(-n4c(C(F)F)nc5ccccc54)n3)CC2)CC1 [Example 231],8.09,5.82
O=S1(=O)CCCN1[C@H]1CC[C@H](COc2cc(-n3c(C(F)F)nc4ccccc43)nc(N3CCOCC3)n2)CC1 [Example 209],7.70,5.55
"CNC(=O)N[C@H]1CC[C@H](Nc2nc(N3CCOCC3)nc(-n3c(C(F)F)nc4ccccc43)n2)CC1 [Example 5, 1-[trans-4-({4-[2-(difluoromethyl)-1H-benzimidazol-1-yl]-6-morpholin-4-yl-1,3,5-triazin-2-yl}amino)cyclohexyl]-3-methylurea]",7.96,6.68
"O=C(NCCN1CCOCC1)N[C@H]1CC[C@H](Nc2nc(N3CCOCC3)nc(-n3c(C(F)F)nc4ccccc43)n2)CC1 [Example 6, 1-[trans-4-({4-[2-(difluoromethyl)-1H-benzimidazol-1-yl]-6-morpholin-4-yl-1,3,5-triazin-2-yl}amino)cyclohexyl]-3-(2-morpholin-4-ylethyl)urea]",8.34,6.48
"O=S1(=O)CCCN1[C@H]1CC[C@H](Nc2cc(-n3c(C(F)F)nc4ccccc43)nc(N3CCOCC3)n2)CC1 [Example 18, 6-[2-(difluoromethyl)-1H-benzimidazol-1-yl]-N-[trans-4-(1,1-dioxidoisothiazolin-2-yl)cyclohexyl]-2-morpholin-4-ylpyrimidin-4-amine]",8.30,5.54
CC(C)(C)OC(=O)NC(C)(C)C(=O)N[C@H]1CC[C@H](Nc2nc(N3CCOCC3)cc(-n3c(C(F)F)nc4ccccc43)n2)CC1 [Example 210],7.66,5.29
C#CCN(C(C)C(C)(C)O)[C@H]1CC[C@H](CNc2nc(N3CCOCC3)cc(-n3c(C(F)F)nc4ccccc43)n2)CC1 (some centres unmarked) [Example 481],8.05,5.96
COCCN(CC(C)(C)O)[C@H]1CC[C@H](CNc2nc(N3CCOCC3)cc(-n3c(C(F)F)nc4ccccc43)n2)CC1 [Example 401],7.82,5.46
O=S(=O)(N[C@H]1CC[C@H](Nc2cc(-n3c(C(F)F)nc4ccccc43)nc(N3CCOCC3)n2)CC1)c1ccccc1 [Example 95],8.31,5.60
FC(F)c1nc2ccccc2n1-c1cc(OC[C@H]2CC[C@H](N3CCOCC3)CC2)nc(N2CCOCC2)n1 [Example 216],8.25,< 5.52
N#Cc1ccc(NC(=O)N[C@H]2CC[C@H](Nc3cc(-n4c(C(F)F)nc5ccccc54)nc(N4CCOCC4)n3)CC2)cc1 [Example 125],8.74,< 5.52
CCN(C(=O)COC)[C@H]1CC[C@H](CNc2nc(N3CCOCC3)cc(-n3c(C(F)F)nc4ccccc43)n2)CC1 [Example 499],7.96,5.82
O=C(N[C@H]1CC[C@H](Nc2nc(N3CCOCC3)nc(-n3c(C(F)F)nc4ccccc43)n2)CC1)C(O)CO (some centres unmarked) [Example 39],8.02,6.33
CC(N[C@H]1CC[C@H](Nc2nc(N3CCOCC3)nc(-n3c(C(F)F)nc4ccccc43)n2)CC1)C1CCCCC1 (some centres unmarked) [Example 107],8.06,
"FC(F)c1nc2ccccc2n1-c1nc(N[C@H]2CC[C@H](N3CCOCC3)CC2)nc(N2CCOCC2)n1 [Example 10, 4-[2-(difluoromethyl)-1H-benzimidazol-1-yl]-6-morpholin-4-yl-N-(trans-4-morpholin-4-ylcyclohexyl)-1,3,5-triazin-2-amine]",8.15,5.82
FC[C@@H]1CCCN1[C@H]1CC[C@@H](COc2cc(-n3c(C(F)F)nc4ccccc43)nc(N3CCOCC3)n2)CC1 [Example 483],7.82,5.06
CN1CCC[C@@H](C(=O)N[C@H]2CC[C@H](Nc3nc(N4CCOCC4)cc(-n4c(C(F)F)nc5ccccc54)n3)CC2)C1 [Example 112],8.34,5.85
CN(C)CC(=O)N(C)[C@H]1CC[C@H](Nc2nc(N3CCOCC3)nc(-n3c(C(F)F)nc4ccccc43)n2)CC1 [Example 47],7.80,6.05
